Legend:
[1] = system: Sprague Dawley rats; assay: Trabecular bone mineral density of femur metaphysis by peripheral quantitative computed tomography after 14 days oral dosing; type: in vivo, rat; conditions: male Sprague Dawley rats, oral gavage 14 days, 3 μmol/kg twice daily or 30 μmol/kg once daily, every second or every fourth day; FIG. 5a-5c
Method: In a separate rat study, the effect of the compound 3-amino-6-[4-(4-methylpiperazin-1-yl)sulfonylphenyl]-N-pyridin-3-ylpyrazine-2-carboxamide on the bone mineral density (BMD) […]. The compound was formulated as a ultrapure solution in water (pH 3.5). The Male Sprague Dawley rats were dosed during 14 days by oral gavage. The study contained 4 dose groups with different dosing regimes and a vehicle control, namely 3 μmol/kg (twice daily) or 30 μmol/kg (once daily, once every second day or once every fourth day). Plasma samples were always taken 2 hrs after the oral dose was given in the morning. After 14 days, the rats were euthanized, and their right femurs were removed. The trabecular bone density of the femur metaphyses were measured utilizing peripheral quantitative computed Tomography method.

[2] = biological target: T1, GSK3β (Mus musculus, UniProt Q9WV60); conditions: glucocorticoid-treated osteoblasts in culture, GSK3β inhibited; cited from earlier work
T1 construct: host or cells: osteoblasts in culture (endogenous protein)
T1 sequence (Q9WV60 whole entry): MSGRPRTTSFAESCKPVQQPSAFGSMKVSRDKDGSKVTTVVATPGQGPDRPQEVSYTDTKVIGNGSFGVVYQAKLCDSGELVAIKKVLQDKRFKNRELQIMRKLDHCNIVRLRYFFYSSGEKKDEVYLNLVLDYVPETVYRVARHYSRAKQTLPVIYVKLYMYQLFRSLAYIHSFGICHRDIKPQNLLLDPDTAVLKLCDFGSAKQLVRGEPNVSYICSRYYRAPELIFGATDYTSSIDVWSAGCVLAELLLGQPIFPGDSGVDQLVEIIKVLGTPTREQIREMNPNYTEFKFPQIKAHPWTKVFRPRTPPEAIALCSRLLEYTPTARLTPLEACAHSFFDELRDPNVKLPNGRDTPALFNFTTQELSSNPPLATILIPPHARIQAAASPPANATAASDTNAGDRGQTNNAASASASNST

[3] = system: Han Wistar rats; assay: Four-week oral rat study, light microscopy of bone sections (bone formation); type: in vivo
Method: The compound 3-amino-6-[4-(4-methylpiperazin-1-yl)sulfonylphenyl]-N-pyridin-3-ylpyrazine-2-carboxamide was formulated as a solution in water. Male and female Han Wistar rats were dosed by oral gavage, at dosages of 10, 30 or 60 μmol/kg/day for four weeks and compared to vehicle controls. Complete necropsies were performed and the tissues preserved in 10% formalin. The femur, femorotibial joint, sternum and hind paws were decalcified, embedded in paraffin, sectioned at 5 μm thickness and stained with hematoxylin and eosin.

[4] = system: osteocalcin; assay: Osteocalcin plasma levels in rats after 7 days oral dosing (ELISA); type: in vivo, rat; conditions: male Sprague Dawley rats, 30 μmol/kg/day orally for 7 days, 3 hours after last dose, vs vehicle
Method: (§1) In a separate rat study, the effect of the compound 3-amino-6-[4-(4-methylpiperazin-1-yl)sulfonylphenyl]-N-pyridin-3-ylpyrazine-2-carboxamide on osteocalcin levels, used as a marker for bone formation, was studied. Parathyroid hormone (PTH) and calcitonin levels were also analysed. The compound was formulated as a solution in water. Male Sprague Dawley rats were given 30 μmol/kg/day of the compound orally for 7 days and then compared to vehicle control rats. Blood samples were taken before the first drug administration at day 1, and 3 hours after the last dose at day 7. Osteocalcin plasma levels were measured using a commercial immunoassay (ELISA kit (catalogue # BT-490, Biomedical Technologies Inc. MA, USA)). Intact PTH levels were analyzed using a commercial ELISA kit (catalogue # 60-2700, Immutopics Inc. CA, USA). The calcitonin was measured in the following way, 200 μL plasma was precipitated with 1 mL acid ethanol, mixed vigorously and centrifuged for 15 min at 1500 g. The supernatant was decanted into a new tube and evaporated with a stream of nitrogen in a Turbo Vap. After reconstitution in assay buffer, calcitonin levels were analyzed using a commercial ELISA kit (catalogue # S-1197, Peninsula. Calif., USA).

[5] = system: Parathyroid hormone (PTH); assay: Intact PTH plasma levels in rats after 7 days oral dosing (ELISA); type: in vivo, rat; conditions: male Sprague Dawley rats, 30 μmol/kg/day orally for 7 days, 3 hours after last dose, vs vehicle
Method: as §1

[6] = system: calcitonin; assay: Calcitonin plasma levels in rats after 7 days oral dosing (ELISA); type: in vivo, rat; conditions: male Sprague Dawley rats, 30 μmol/kg/day orally for 7 days, 3 hours after last dose, vs vehicle
Method: as §1

[7] = system: Sprague Dawley rats; assay: Histopathology of bone in the 7-day rat study; type: in vivo; conditions: male Sprague Dawley rats, 30 μmol/kg/day orally for 7 days
[8] = rat, 60 μmol/kg for 4 weeks, vs vehicle-treated control

SMILES: Nc1ncc(-c2ccc(S(=O)(=O)N3CCNCC3)cc2)nc1C(=O)Nc1cccnc1 [3-amino-6-(4-piperazin-1-ylsulfonylphenyl)-N-pyridin-3-ylpyrazine-2-carboxamide]
- bone mineral density (BMD) in the trabeculae of the right femur metaphysis [1]: BMD increases

SMILES: Nc1ncc(-c2ccc(S(N)(=O)=O)cc2)nc1C(=O)Nc1cccnc1 [3-amino-N-pyridin-3-yl-6-(4-sulfamoylphenyl)pyrazine-2-carboxamide]
- bone mineral density (BMD) in the trabeculae of the right femur metaphysis [1]: BMD increases

SMILES: [Cl-].[Li+] [lithium chloride]
- attenuated cell cycle and reduced c-Myc level in osteoblasts [2]: returned to normal

SMILES: CN1CCN(S(=O)(=O)c2ccc(-c3cnc(N)c(C(=O)Nc4cccnc4)n3)cc2)CC1 [3-amino-6-[4-(4-methylpiperazin-1-yl)sulfonylphenyl]-N-pyridin-3-ylpyrazine-2-carboxamide]
- bone formation (thickened trabeculae, thickened cortical bone, periosteal hyperostosis, increased number of osteoblasts) by light microscopy ([3]; male and female Han Wistar rats, oral gavage 10, 30 or 60 μmol/kg/day for four weeks, all dose levels, vs vehicle): increased bone formation
- formation of osteoid in femur (diaphysis), FIG. 1b [3, 8]: marked increase in formation of osteoid
- formation of osteoid in femur (diaphysis), FIG. 1b (figure legend) [3, 8]: marked increase in formation of osteoid
- Osteocalcin plasma levels [4]: significantly increased
- PTH plasma levels [5]: significantly increased
- calcitonin plasma levels [6]: significantly increased
- bone formation, histopathologically [7]: increased bone formation
- bone mineral density (BMD) in the trabeculae of the right femur metaphysis [1]: BMD increases
